Source: US20200281897A1, “INDAZOLE DERIVATIVES FOR CANCER TREATMENT” (Servicio Andaluz de Salud, priority 2016, published 2020)

Test system: myeloma plasma cells (MPCs, CD38+)
Test: Ex vivo viability of myeloma plasma cells of MM patients by flow cytometry
Assay type: cell-based, human
Conditions: 18 hours, six MM patients
Procedure: In vitro studies were carried out using six different human MM cell lines, U266, RPMI8226, MM1S, MM1R, U266-LR7, and RPMI-LR5. For ex vivo assays, human primary cells from healthy donors and MM patients were used (Table 1). Human MM cell lines U266, RPMI8226, and MM1.S were acquired from ATCC and lines U266-LR7, RPMI-LR5, and MM1.R were kindly provided by Dr. Enrique Ocio (Hospital Universitario de Salamanca, Spain). The primary cells were obtained from bone marrow (BM) aspirates or peripheral blood (PB) samples, and the peripheral blood mononuclear cells (PBMCs) were isolated by Ficoll-Hypaque centrifugation and washed twice in phosphate buffered saline (PBS) containing 1% BSA. […]
The cell viability of the MM cell lines and primary cells from healthy PB donors was also evaluated by flow cytometry using 7-AAD/Annexin V. Patient bone marrow (BM) cells were analyzed using 7-AAD with a combination of monoclonal antibodies against myeloma-associated antigens (anti-CD56-APC, anti-CD45-Pacific Blue, and anti-CD38-APC-H7 [BD Biosciences]) and antibodies for distinguishing the granulomonocytic population (anti-CD64-FITC) and lymphocytic population (anti-CD45-Pacific Blue). The cells were acquired by means of FACSCanto II flow cytometer (BD Biosciences) and analyzed using Infinicyt™ Software (Cytognos, Spain).

CS(=O)(=O)O.Cc1c(C(=O)c2cccc3ccccc23)c2cccc3c2n1[C@H](CN1CCOCC1)CO3 [WIN-55, (R)-(+)-[2,3-dihydro-5-methyl-3-(4-morpholinomethyl)-pyrrolo[1,2,3]-1,4-benzoxazin-6-yl]-1-naphthalenylmethanone mesylate]
decrease in cell viability of MPCs (CD38+) (20 μM): 70%
decrease in cell viability of MPCs (CD38+) (50 μM): 85%
